# In patent US20250346585A1 (Alexion Pharmaceuticals, Inc., priority 2022, published 2025):
# Target: Human complement C1s enzyme (Homo sapiens (Human), UniProt P09871)
# Assay: Human C1s enzyme assay
# Type: biochemical
# Details: Human C1s enzyme assay of Example 3; read-out: IC50 (Stars)
# Outline: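 Purified serum-derived human C1s (1.16 nM final) preincubated 5 min at room temperature with compound in 50 mM Tris, 1 M NaCl, pH 7.5. Z-L-Lys-SBzl thioester substrate and DTNB added (100 μM each, final); A405 read every 30 s for 30 min. IC50 from nonlinear regression of reaction rates against compound concentration.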
# Sequence of Human complement C1s enzyme (P09871 438-688 limits assumed): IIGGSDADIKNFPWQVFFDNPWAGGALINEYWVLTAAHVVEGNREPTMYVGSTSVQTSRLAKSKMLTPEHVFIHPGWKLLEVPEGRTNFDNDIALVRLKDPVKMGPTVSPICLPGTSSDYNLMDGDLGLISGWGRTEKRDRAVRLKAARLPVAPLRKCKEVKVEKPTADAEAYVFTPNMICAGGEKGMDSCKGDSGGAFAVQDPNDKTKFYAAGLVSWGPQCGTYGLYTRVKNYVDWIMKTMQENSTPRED
# Sequence of Human complement C1s enzyme (P09871 16-437 partner limits assumed): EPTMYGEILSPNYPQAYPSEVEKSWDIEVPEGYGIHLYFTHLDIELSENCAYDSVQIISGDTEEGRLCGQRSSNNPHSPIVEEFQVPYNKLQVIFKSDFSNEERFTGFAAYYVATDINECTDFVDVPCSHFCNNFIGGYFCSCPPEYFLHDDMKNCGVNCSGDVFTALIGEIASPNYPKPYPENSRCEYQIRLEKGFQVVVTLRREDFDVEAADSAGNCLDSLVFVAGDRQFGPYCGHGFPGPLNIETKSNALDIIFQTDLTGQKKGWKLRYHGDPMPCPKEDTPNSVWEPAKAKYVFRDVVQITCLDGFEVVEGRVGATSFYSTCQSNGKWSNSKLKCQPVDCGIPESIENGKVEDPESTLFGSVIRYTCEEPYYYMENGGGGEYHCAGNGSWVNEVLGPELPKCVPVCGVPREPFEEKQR
row,Structure (SMILES),IC50 [nM]
1,"Cc1ccc(-c2cccc(C(=O)NCC(=O)N3CC4(C[C@H]3C(=O)N[C@H](C)c3cc(C(=N)N)cs3)OCCO4)c2)cc1 [Compound 120, (S)—N—((R)-1-(4-carbamimidoylthiophen-2-yl)ethyl)-7-((4′-methyl-[1,1′-biphenyl]-3-carbonyl)glycyl)-1,4-dioxa-7-azaspiro[4.4]nonane-8-carboxamide]",< 100
2,"COC[C@@]1(F)C[C@@H](C(=O)N[C@H](C)c2cc(C(=N)N)cs2)N(C(=O)CNC(=O)c2ccc(Oc3ccccc3)c(C)c2)C1 [Compound 34, (2S,4R)—N—((R)-1-(4-carbamimidoylthiophen-2-yl)ethyl)-4-fluoro-4-(methoxymethyl)-1-((3-methyl-4-phenoxybenzoyl)glycyl)pyrrolidine-2-carboxamide]",< 100
3,"Cc1ccc(-c2ccc(C(=O)NCC(=O)N3CC4(C[C@H]3C(=O)N[C@H](C)c3cc(C(=N)N)cs3)OCCO4)cc2)cc1 [Compound 126, (S)—N—((R)-1-(4-carbamimidoylthiophen-2-yl)ethyl)-7-((4′-methyl-[1,1′-biphenyl]-4-carbonyl)glycyl)-1,4-dioxa-7-azaspiro[4.4]nonane-8-carboxamide]",< 100
4,"O=C(NCC(=O)N1CC2(C[C@H]1C(=O)NCc1cccs1)OCCO2)c1ccc(Oc2ccc(F)cc2)cc1 [Compound 124, (S)-7-((4-(4-fluorophenoxy)benzoyl)glycyl)-N-(thiophen-2-ylmethyl)-1,4-dioxa-7-azaspiro [4.4]nonane-8-carboxamide]",> 1000
5,"Cc1cnc(-c2ccc(C(=O)NCC(=O)N3CC4(C[C@H]3C(=O)N[C@H](C)c3cc(C(=N)N)cs3)OCCO4)cc2)c(C)c1 [Compound 173, (S)—N—((R)-1-(4-carbamimidoylthiophen-2-yl)ethyl)-7-((4-(3,5-dimethylpyridin-2-yl)benzoyl)glycyl)-1,4-dioxa-7-azaspiro[4.4]nonane-8-carboxamide]",< 100
6,"N=C(N)c1csc(CNC(=O)[C@@H]2CC3(CN2C(=O)CNC(=O)c2ccc(-c4ccccc4)cc2F)OCCO3)c1 [Compound 83, (S)—N-((4-carbamimidoylthiophen-2-yl)methyl)-7-((3-fluoro-[1,1′-biphenyl]-4-carbonyl)glycyl)-1,4-dioxa-7-azaspiro[4.4]nonane-8-carboxamide]",< 100
7,"C[C@H]1C[C@@H](C(=O)N[C@H](C)c2cc(C(=N)N)cs2)N(C(=O)CNC(=O)c2ccc3c(c2)-c2ccccc2C3(F)F)C1 [Compound 46, (2S,4S)—N—((R)-1-(4-carbamimidoylthiophen-2-yl)ethyl)-1-((9,9-difluoro-9H-fluorene-3-carbonyl)glycyl)-4-methylpyrrolidine-2-carboxamide]",< 100
8,"Cc1cc(C(=O)NCC(=O)N2CC3(C[C@H]2C(=O)N[C@H](C)c2cc(C(=N)N)cs2)OCCO3)cc2c1C(F)(F)c1ccccc1-2 [Compound 179, (S)—N—((R)-1-(4-carbamimidoylthiophen-2-yl)ethyl)-7-((9,9-difluoro-1-methyl-9H-fluorene-3-carbonyl)glycyl)-1,4-dioxa-7-azaspiro[4.4]nonane-8-carboxamide]",< 100
9,"Nc1cccc(-c2csc(CNC(=O)[C@@H]3CC4(CN3C(=O)CNC(=O)c3ccc(Oc5ccc(F)cc5)cc3)OCCO4)c2)n1 [Compound 103, (S)—N-((4-(6-aminopyridin-2-yl)thiophen-2-yl)methyl)-7-((4-(4-fluorophenoxy)benzoyl)glycyl)-1,4-dioxa-7-azaspiro[4.4]nonane-8-carboxamide]",> 1000
10,"C[C@@H](NC(=O)[C@@H]1CC2(CN1C(=O)CNC(=O)c1ccc3c(c1)-c1ccccc1C3O)OCCO2)c1cc(C(=N)N)cs1 (stereo partly drawn) [Compound 162, (8S)—N—((R)-1-(4-carbamimidoylthiophen-2-yl)ethyl)-7-((9-hydroxy-9H-fluorene-3-carbonyl)glycyl)-1,4-dioxa-7-azaspiro[4.4]nonane-8-carboxamide]",< 100
11,"C[C@@H](NC(=O)[C@@H]1C[C@](F)(CN)CN1C(=O)CNC(=O)c1ccc2c(c1)-c1ccccc1C2(F)F)c1cc(C(=N)N)cs1 [Compound 35, (2S,4S)-4-(aminomethyl)-N—((R)-1-(4-carbamimidoylthiophen-2-yl)ethyl)-1-((9,9-difluoro-9H-fluorene-3-carbonyl)glycyl)-4-fluoropyrrolidine-2-carboxamide]",< 100

# Same assay, conditions: Human complement C1s enzyme 1.16 nM, substrate Z-L-Lys-SBzl 100 μM, assay of Example 3; read-out: IC50 (Stars)
row,Structure (SMILES),IC50 [nM]
1,"C[C@@H](NC(=O)[C@@H]1C[C@@H](OC(F)F)CN1C(=O)CNC(=O)c1ccc2[nH]c3ccccc3c2c1)c1cc(C(=N)N)cs1 [Compound 326, N-(2-((2S,4R)-2-(((R)-1-(4-carbamimidoylthiophen-2-yl)ethyl)carbamoyl)-4-(difluoromethoxy)pyrrolidin-1-yl)-2-oxoethyl)-9H-carbazole-3-carboxamide]",< 100
2,"C[C@@H](NC(=O)[C@@H]1CC2(CN1C(=O)CNC(=O)c1ccc3c(c1)-c1ccccc1S3(=O)=O)OCCO2)c1cc(C(=N)N)cs1 [Compound 261, (S)—N—((R)-1-(4-carbamimidoylthiophen-2-yl)ethyl)-7-((5,5-dioxidodibenzo[b,d]thiophene-2-carbonyl)glycyl)-1,4-dioxa-7-azaspiro[4.4]nonane-8-carboxamide]",< 100
3,"COC[C@@]1(F)C[C@@H](C(=O)N[C@H](C)c2cc(C(=N)N)cs2)N(C(=O)CNC(=O)c2ccc3sc4ccccc4c3c2)C1 [Compound 394, (2S,4R)—N—((R)-1-(4-carbamimidoylthiophen-2-yl)ethyl)-1-((dibenzo[b,d]thiophene-2-carbonyl)glycyl)-4-fluoro-4-(methoxymethyl)pyrrolidine-2-carboxamide]",< 100
4,"C[C@@H](NC(=O)[C@@H]1CC2(CN1C(=O)CNC(=O)c1ccc3c(c1)-c1cc(F)ccc1C3(F)F)OCCO2)c1cc(C(=N)N)cs1 [Compound 225, (S)—N—((R)-1-(4-carbamimidoylthiophen-2-yl)ethyl)-7-((6,9,9-trifluoro-9H-fluorene-3-carbonyl)glycyl)-1,4-dioxa-7-azaspiro[4.4]nonane-8-carboxamide]",< 100
5,"C[C@@H](NC(=O)[C@@H]1CC2(CN1C(=O)CNC(=O)c1ccc3c(c1)Sc1ccccc1O3)OCCO2)c1cc(C(=N)N)cs1 [Compound 312, (S)—N—((R)-1-(4-carbamimidoylthiophen-2-yl)ethyl)-7-((phenoxathiine-2-carbonyl)glycyl)-1,4-dioxa-7-azaspiro[4.4]nonane-8-carboxamide]",< 100
6,"CC1(C)c2ccccc2-c2cc(C(=O)NCC(=O)N3C[C@H](S(C)(=O)=O)C[C@H]3C(=O)N[C@H](CO)c3cc(C(=N)N)cs3)ccc21 [Compound 380, (2S,4R)—N—((R)-1-(4-carbamimidoylthiophen-2-yl)-2-hydroxyethyl)-1-((9,9-dimethyl-9H-fluorene-3-carbonyl)glycyl)-4-(methylsulfonyl) pyrrolidine-2-carboxamide]",< 100
7,C[C@@H](NC(=O)[C@@H]1CC2(CN1C(=O)CN1Cc3cc(-c4ccc(F)cc4F)ccc3C1=O)OCCO2)c1cc(C(=N)N)cs1 [Compound 366],< 100
8,"C[C@@H](NC(=O)[C@@H]1C[C@H](C(F)(F)F)CN1C(=O)CNC(=O)c1ccc(Oc2ccc(F)cc2)cc1)c1cc(C(=N)N)cs1 [Compound 323, (2S,4S)—N—((R)-1-(4-carbamimidoylthiophen-2-yl)ethyl)-1-((4-(4-fluorophenoxy)benzoyl)glycyl)-4-(trifluoromethyl)pyrrolidine-2-carboxamide]",< 100
9,"C[C@@H](NC(=O)[C@@H]1CC2(CN1C(=O)CNC(=O)c1ncc(-c3ccc(F)cc3F)cc1F)OCCO2)c1cc(C(=N)N)cs1 [Compound 356, (S)—N—((R)-1-(4-carbamimidoylthiophen-2-yl)ethyl)-7-((5-(2,4-difluorophenyl)-3-fluoropicolinoyl)glycyl)-1,4-dioxa-7-azaspiro[4.4]nonane-8-carboxamide]",< 100
10,"CC1c2ccccc2-c2ccc(C(=O)NCC(=O)N3C[C@H](OC(F)F)C[C@H]3C(=O)N[C@H](C)c3cc(C(=N)N)cs3)cc21 (stereo partly drawn) [Compound 357, (2S,4R)—N—((R)-1-(4-carbamimidoylthiophen-2-yl)ethyl)-4-(difluoromethoxy)-1-((9-methyl-9H-fluorene-2-carbonyl)glycyl)pyrrolidine-2-carboxamide]",< 100
11,"C[C@@H](NC(=O)[C@@H]1CC2(CN1C(=O)CN1Cc3cc(-c4ccccc4)ccc3C1=O)OCCO2)c1cc(C(=N)N)cs1 [Compound 365, (S)—N—((R)-1-(4-carbamimidoylthiophen-2-yl)ethyl)-7-(2-(1-oxo-5-phenylisoindolin-2-yl)acetyl)-1,4-dioxa-7-azaspiro[4.4]nonane-8-carboxamide]",< 100
12,"CCCCCCOC(=O)/N=C(/N)c1csc([C@@H](C)NC(=O)[C@@H]2C[C@](F)(CF)CN2C(=O)CNC(=O)c2ccc3c(c2)-c2ccccc2C3(F)F)c1 [Compound 253, hexyl ((E)-amino(5-((R)-1-((2S,4R)-1-((9,9-difluoro-9H-fluorene-3-carbonyl)glycyl)-4-fluoro-4-(fluoromethyl)pyrrolidine-2-carboxamido)ethyl)thiophen-3-yl)methylene)carbamate]",< 100
13,"C[C@@H](NC(=O)[C@@H]1C[C@](F)(Cn2ccnn2)CN1C(=O)CNC(=O)c1ccc2c(c1)-c1ccccc1C2(F)F)c1cc(C(=N)N)cs1 [Compound 260, (2S,4R)-4-((1H-1,2,3-triazol-1-yl)methyl)-N—((R)-1-(4-carbamimidoylthiophen-2-yl)ethyl)-1-((9,9-difluoro-9H-fluorene-3-carbonyl)glycyl)-4-fluoropyrrolidine-2-carboxamide]",< 100
14,"COC[C@@]1(F)C[C@@H](C(=O)N[C@H](C)c2cc(C(=N)N)cs2)N(C(=O)CNC(=O)c2ccc3c(c2)-c2ccccc2S3(=O)=O)C1 [Compound 393, (2S,4R)—N—((R)-1-(4-carbamimidoylthiophen-2-yl)ethyl)-1-((5,5-dioxidodibenzo[b,d]thiophene-2-carbonyl)glycyl)-4-fluoro-4-(methoxymethyl) pyrrolidine-2-carboxamide]",< 100
